Experiments:
CYP2E1 = CYP2E1 (Homo sapiens, UniProt P05181); experiment: Chemical inhibition of metaxalone turnover in human liver microsomes, CYP2E1 inhibitor clomethiazole; conditions: both, human, microsomes, pH 7.4, Inhibition of metaxalone disappearance (% inhibition of turnover)
CYP1A2 [1] = experiment: Induction/inhibition of CYP1A2 activity in cryopreserved human hepatocytes after 48 h exposure (phenacetin); conditions: human, 48 h, 50 μM
Description: (§1) Hepatocytes from three human donors were obtained from a cryopreserved hepatocyte bank (In Vitro Technologies, Inc., USA). After thawing, viable hepatocytes were transferred to collagen-coated 48-well plates for attachment in plating medium (DMEM stock (Dulbecco's modified Eagle's medium, supplemented with bovine serum albumin, fructose, N-(2-hydroxyethyl)piperazine-N′-(2-ethanesulfonate) (HEPES), and sodium bicarbonate), supplemented with antibiotics, bovine serum, hydrocortisone, insulin and minimum essential medium (MEM) nonessential amino acids). After attachment to the collagen matrix, plating medium was replaced with sandwich medium (plating medium supplemented with VITROGEN) and incubated until use.
(§2) The supplemented KHB was replaced with 150 μL supplemented KHB containing the appropriate isoform-selective substrate and incubated for 4 hrs prior to termination by adding 150 μL ice-cold methanol, except for the CYP2C8 incubations which were terminated by adding 150 μL acetonitrile.
(§3) All substrates were dissolved in acetonitrile.
(§4) Replicate trials and controls were performed. […] Additionally, reference control samples were included to evaluate inducibility of CYP2B6, CYP2C9, and CYP2C19 in the test system.
(§5) Mean specific activity values with associated p-values≦0.05 were deemed to be statistically significant.

CYP2A6 = experiment: Chemical inhibition of metaxalone turnover in human liver microsomes, CYP2A6 inhibitor pilocarpine; conditions: both, human, microsomes, pH 7.4, Inhibition of metaxalone disappearance (% inhibition of turnover)
CYP3A4 = CYP3A4 (Homo sapiens, UniProt P08684); experiment: in vitro; conditions: both, pooled human liver microsomes
Sequence of CYP3A4 (P08684 whole entry): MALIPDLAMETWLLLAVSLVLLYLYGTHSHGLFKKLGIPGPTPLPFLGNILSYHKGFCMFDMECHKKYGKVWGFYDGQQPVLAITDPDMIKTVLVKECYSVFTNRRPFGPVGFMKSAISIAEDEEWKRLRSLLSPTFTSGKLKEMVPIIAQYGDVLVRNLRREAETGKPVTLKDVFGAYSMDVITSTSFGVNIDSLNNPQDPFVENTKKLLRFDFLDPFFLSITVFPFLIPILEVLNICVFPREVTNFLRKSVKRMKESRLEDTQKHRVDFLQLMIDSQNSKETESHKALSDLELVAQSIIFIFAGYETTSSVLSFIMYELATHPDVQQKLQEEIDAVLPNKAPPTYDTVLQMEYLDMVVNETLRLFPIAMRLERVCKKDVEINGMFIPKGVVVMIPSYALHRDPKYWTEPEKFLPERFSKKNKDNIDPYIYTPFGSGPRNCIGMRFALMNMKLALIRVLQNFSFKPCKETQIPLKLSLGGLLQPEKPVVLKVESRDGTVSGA

CYP2B6 [2] = experiment: Induction/inhibition of CYP2B6 activity in cryopreserved human hepatocytes (S-mephenytoin); conditions: 1 mM Phenobarbital; each hepatocyte donor
Description: as §1, §2, §3, §4, §5

CYP2B6 [3] = experiment: Chemical inhibition of metaxalone turnover in human liver microsomes, CYP2B6 inhibitor thio-TEPA; conditions: both, human, microsomes, pH 7.4, Inhibition of metaxalone disappearance (% inhibition of turnover)
CYP1A2 [4] = molecular target: T1, CYP1A2 (Homo sapiens, UniProt P05177); experiment: Chemical inhibition of metaxalone turnover in human liver microsomes, CYP1A2 selective inhibitor furafylline; conditions: both, pooled human liver microsomes
T1 sequence (P05177 1-516): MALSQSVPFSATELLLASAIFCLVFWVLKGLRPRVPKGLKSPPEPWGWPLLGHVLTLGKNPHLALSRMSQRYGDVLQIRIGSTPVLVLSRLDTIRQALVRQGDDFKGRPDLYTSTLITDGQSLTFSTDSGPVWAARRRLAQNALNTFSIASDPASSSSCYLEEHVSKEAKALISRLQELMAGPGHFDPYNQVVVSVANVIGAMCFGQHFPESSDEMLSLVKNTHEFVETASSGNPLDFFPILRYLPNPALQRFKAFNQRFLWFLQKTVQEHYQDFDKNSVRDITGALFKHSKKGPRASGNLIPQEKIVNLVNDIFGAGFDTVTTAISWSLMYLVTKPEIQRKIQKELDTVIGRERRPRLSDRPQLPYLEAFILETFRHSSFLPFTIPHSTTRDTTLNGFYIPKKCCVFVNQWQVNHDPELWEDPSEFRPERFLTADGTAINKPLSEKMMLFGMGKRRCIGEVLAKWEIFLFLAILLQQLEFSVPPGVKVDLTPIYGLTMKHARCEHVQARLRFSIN

CYP2C9 = CYP2C9 (Homo sapiens, UniProt P11712); experiment: in vitro; conditions: both, microsomes, pH 7.4, Inhibition of metaxalone disappearance (% inhibition of turnover)
Sequence of CYP2C9 (P11712 whole entry): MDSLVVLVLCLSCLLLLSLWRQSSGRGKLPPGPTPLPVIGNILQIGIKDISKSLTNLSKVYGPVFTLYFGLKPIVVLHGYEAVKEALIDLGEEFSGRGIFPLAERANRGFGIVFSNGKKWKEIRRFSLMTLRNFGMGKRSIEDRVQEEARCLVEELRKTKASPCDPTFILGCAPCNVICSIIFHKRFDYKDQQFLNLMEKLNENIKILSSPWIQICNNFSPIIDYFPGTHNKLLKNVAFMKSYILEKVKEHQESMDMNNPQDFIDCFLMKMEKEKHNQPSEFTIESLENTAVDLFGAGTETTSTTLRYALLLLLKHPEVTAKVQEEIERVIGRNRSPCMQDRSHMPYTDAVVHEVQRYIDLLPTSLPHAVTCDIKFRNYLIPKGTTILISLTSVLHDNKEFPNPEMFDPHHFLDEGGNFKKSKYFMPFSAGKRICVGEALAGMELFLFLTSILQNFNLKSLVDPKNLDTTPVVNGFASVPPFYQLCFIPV

CYP2C8 = molecular target: T2, CYP2C8 (Homo sapiens, UniProt P10632); experiment: Chemical inhibition of metaxalone turnover in human liver microsomes, CYP2C8 inhibitor quercetin; conditions: both, human, pooled human liver microsomes
T2 sequence (P10632 1-490): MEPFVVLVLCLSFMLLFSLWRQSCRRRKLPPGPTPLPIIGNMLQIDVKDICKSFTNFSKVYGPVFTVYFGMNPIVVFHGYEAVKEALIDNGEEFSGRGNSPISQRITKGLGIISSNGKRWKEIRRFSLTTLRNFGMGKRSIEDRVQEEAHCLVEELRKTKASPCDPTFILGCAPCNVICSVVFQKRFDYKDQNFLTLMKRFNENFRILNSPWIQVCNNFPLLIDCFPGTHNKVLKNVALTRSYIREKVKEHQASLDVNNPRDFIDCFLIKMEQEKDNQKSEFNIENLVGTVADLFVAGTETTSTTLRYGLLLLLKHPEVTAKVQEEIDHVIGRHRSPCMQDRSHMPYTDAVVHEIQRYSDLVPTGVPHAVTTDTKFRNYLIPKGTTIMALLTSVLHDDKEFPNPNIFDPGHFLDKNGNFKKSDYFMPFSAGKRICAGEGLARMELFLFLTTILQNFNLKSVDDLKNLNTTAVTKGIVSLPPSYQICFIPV

[5] = pH 7.4, probe metaxalone 0.75 μM (disappearance)
[6] = pH 7.4, probe metaxalone 7.5 μM (disappearance)

Sequence of CYP2E1 (P05181 whole entry): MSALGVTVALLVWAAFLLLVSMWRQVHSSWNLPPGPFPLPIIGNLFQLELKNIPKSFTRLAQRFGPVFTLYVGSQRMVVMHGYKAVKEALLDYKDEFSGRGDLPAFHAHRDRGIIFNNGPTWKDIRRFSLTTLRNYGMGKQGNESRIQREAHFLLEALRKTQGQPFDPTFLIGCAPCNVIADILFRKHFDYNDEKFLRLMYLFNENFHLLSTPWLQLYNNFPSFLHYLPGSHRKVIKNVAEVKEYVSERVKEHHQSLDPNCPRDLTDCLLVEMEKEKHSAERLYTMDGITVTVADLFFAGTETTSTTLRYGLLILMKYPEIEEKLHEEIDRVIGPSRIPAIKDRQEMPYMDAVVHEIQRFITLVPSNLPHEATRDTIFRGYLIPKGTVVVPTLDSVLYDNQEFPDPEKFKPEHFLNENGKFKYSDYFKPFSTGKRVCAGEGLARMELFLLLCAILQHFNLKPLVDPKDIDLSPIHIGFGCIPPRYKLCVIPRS

Cc1ncsc1CCCl [clomethiazole]
inhibition at 60 min (CYP2E1; 0.75 μM metaxalone): 113 ± 21%
inhibition at 60 min (CYP2E1; 7.5 μM metaxalone): 98.6 ± 4.9%

COc1ccc2[nH]c([S+]([O-])Cc3ncc(C)c(OC)c3C)nc2c1 (stereo not shown) [omeprazole]
induction (CYP1A2 [1]): ≥ 200%

CC[C@@H]1C(=O)OC[C@@H]1Cc1cncn1C [pilocarpine]
inhibition at 60 min (CYP2A6; 0.75 μM metaxalone): 46.2 ± 5.7%
inhibition at 60 min (CYP2A6; 7.5 μM metaxalone): 50.8 ± 6.9%

CC(=O)N1CCN(c2ccc(OCC3COC(Cn4ccnc4)(c4ccc(Cl)cc4Cl)O3)cc2)CC1 (stereo not shown) [ketoconazole]
inhibition at 60 min (CYP3A4; [5]): 126 ± 5%
inhibition at 60 min (CYP3A4; [6]): 130 ± 18%

CCC1(c2ccccc2)C(=O)NC(=O)NC1=O [Phenobarbital]
induction (reference control) (CYP2B6 [2]): statistically significant amount of induction

S=P(N1CC1)(N1CC1)N1CC1 [thio-TEPA]
inhibition at 60 min (CYP2B6 [3]; 0.75 μM metaxalone): 58.3 ± 2.4%
inhibition at 60 min (CYP2B6 [3]; 7.5 μM metaxalone): 43.3 ± 13.8%

Cc1nc2c([nH]1)c(=O)n(C)c(=O)n2Cc1ccco1 [furafylline]
inhibition at 60 min (CYP1A2 [4]; [5]): 111 ± 29%
inhibition at 60 min (CYP1A2 [4]; [6]): 80.6 ± 2.4%

Nc1ccc(S(=O)(=O)Nc2ccnn2-c2ccccc2)cc1 [sulfaphenazole]
inhibition at 60 min (CYP2C9; 0.75 μM metaxalone): 81.4 ± 0.3%
inhibition at 60 min (CYP2C9; 7.5 μM metaxalone): 52.8 ± 2.9%

O=c1c(O)c(-c2ccc(O)c(O)c2)oc2cc(O)cc(O)c12 [quercetin]
inhibition at 60 min (CYP2C8; [5]): 77.2 ± 13.6%
inhibition at 60 min (CYP2C8; [6]): 84.7 ± 18.3%

From US20080292584A1 (priority 2005, published 2008)
